Source: PubChem BioAssay AID2060892 (Molecular Pharmacology Branch, DTP, NCI, 2025)
“And” between values parts separate entries of the source, which are not always exact repeats. Equal values may be shown once.

Test system: HOP-62 complex spheroids with HUVEC/MSC, viability
Assay: Anticancer human tumor HOP-62 cell line growth inhibition [RAS];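 further: spheroids exposed to agents for seven days before readout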;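 on viability, T/C: 100% = DMSO vehicle control viability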
Conditions: for viability, T/C: stronger effect = lower value
Excerpt: RAS pathway inhibitors in Combinations in Complex Spheroids
A high-throughput screen of multi-cell type tumor spheroids was designed to identify active combinations of RAS pathway inhibitors and targeted small molecules. Complex spheroids include a stromal component modeled by human endothelial cells (HUVEC) and fibroblasts modeled by human mesenchymal stem cells (MSCs). The concentration ranges selected for each drug and investigational agent were based upon clinically achievable concentrations if the clinical Cmax of the agent was known.
Compounds. The drugs and investigational agents: abemaciclib (NSC768073), cobimetinib (NSC768068), divarasib (GDC6063, NSC841802), docetaxel (NSC628503), GDC-1971 (RLY-1971, NSC841576), gemcitabine (NSC613327), inavolisib (NSC800729), ipatasertib (NSC767898), KB-0742 (NSC834161), MRTX-1133 (NSC836407), osimertinib (NSC779217), RMC-4630 (NSC839698), RMC-6236 (NSC851965), RMC-6291 (NSC852671), Ro-3306 (NSC812927), sapanisertib (NSC764658), SN-38 (NSC673596), staurosporine (NSC755774), SY5609 (NSC837396), and tovorafenib (DAY101, NSC766906), were obtained from the National Cancer Institute (NCI) Developmental Therapeutics Program Chemical Repository. The FDA-approved anticancer drug set is available from the NCI Developmental Therapeutics Program. […] The stock solutions were prepared in dimethyl sulfoxide (DMSO, Sigma-Aldrich, St. Louis, MO, cat. D2650) at 800-fold the tested concentration and stored at -70 degrees C prior to their use. All drugs and investigational agents were tested over a range starting from a high concentration at or near the clinical Cmax and decreasing in half-log increments. If the clinical Cmax for an agent had not been determined, the highest concentration tested was 10 microM.
Cell Culture. All cells were maintained in an incubator at 37 degrees C and 5% CO2 with 95% humidity. The PDC lines were cultured according to standard operating procedures established by the NCI PDMR. All PDCs were thawed and cultured in Matrigel-coated flasks prepared with a working solution of 1X Ham's F-12 nutrient mix, without supplementation (Invitrogen, Waltham, MA, cat. 11765054), 100 U/mL penicillin-streptomycin (Invitrogen, cat. 15140122), and 2.5% Matrigel (Corning Inc., Corning, NY, cat. 354248) for the first three passages. The 362531-283-R-J2-PDC and 782815-120-R-J1-PDC lines were cultured in 6C/Colon 1B media, which includes advanced DMEM/F-12 (Thermo Fisher Scientific, cat. 12634028), 10 mM HEPES (Thermo Fisher Scientific, cat. 15630080), 1X GlutaMAX supplement (Thermo Fisher Scientific, cat. 35050061), 0.1 mg/mL primocin (InvivoGen, San Diego, CA, cat. ant-pm-2), 10% defined fetal bovine serum, heat inactivated (HyClone Laboratories Inc., Logan, UT, cat. SH30070.03HI), 50% L-WRN conditioned media (ATCC, cat. CRL-3276), 1.25 mM N-Acetyl-L-cysteine (Sigma-Aldrich, cat. A9165), 10 mM nicotinamide (Sigma-Aldrich, cat. N0636), 1X B-27 supplement (Thermo Fisher Scientific, cat. 17504044), 1X N-2 supplement (Thermo Fisher Scientific, cat. 17502048), 50 ng/mL human EGF (Thermo Fisher Scientific, cat. PHG0311), and 10 microM Y-27632 dihydrochloride (Tocris Bioscience, cat. 1254). The K12877-001-R-J1-PDC line was cultured in 6I media, which includes all 6C/Colon 1B media plus 10 ng/mL human FGF-10 (PeproTech, cat. 100-26), 1 ng/mL human FGF-2 (PeproTech, cat. 100-18B), 1 µM prostaglandin E2 (Tocris Bioscience, cat. 2296), […] hydrocortisone (Sigma-Aldrich, cat. H4001), and […] bovine insulin (Sigma-Aldrich, cat. I6634). The K86415-001-R-J1-PDC line was cultured in 6D media, which includes all 6C/Colon 1B media components minus the L-WRN conditioned media. The 485176-168-R4-J1-PDC was cultured in PANC media, which includes all 6C/Colon 1B media plus 100 ng/mL human FGF-10 (PeproTech, cat. 100-26), 500 nM SB-431542 (Selleckchem, cat. S1067), and 10 nM gastrin (Tocris Bioscience, cat. 3006). […]

CC(Nc1ccc2c(c1)OCCn1cc(N3C(=O)OCC3C(F)F)nc1-2)C(N)=O (stereo unspecified)
viability, T/C (compound 10 µM): 36.1% (2×) and 49.9% and 54.1%
IC50 (curve of compound): 2310 nM and > 10000 nM and 1990 nM

NC1c2ccccc2OC12CCN(c1cnc3c(N4CCCc5ncccc54)n[nH]c3n1)CC2 (stereo unspecified)
viability, T/C (compound 0.0316 µM): 106% [middle of 4 runs]
IC50 (curve of compound): 4450 nM and > 10000 nM and 9130 nM

C=CC(=O)Nc1cc(Nc2nccc(-c3cn(C)c4ccccc34)n2)c(OC)cc1N(C)CCN(C)C + C#Cc1c(F)ccc2cc(O)cc(-c3ncc4c(N5CC6CCC(C5)N6)nc(OCC56CCCN5CC(F)C6)nc4c3F)c12
IC50 (curve of first compound, second compound 0.0316 µM): > 1000 nM
IC50 (curve of first compound, second compound 0.1 µM): > 1000 nM
IC50 (curve of first compound, second compound 0.316 µM): > 1000 nM
IC50 (curve of first compound, second compound 1 µM): > 1000 nM
IC50 (curve of first compound, second compound 3.16 µM): 535 nM
IC50 (curve of first compound, second compound 10 µM): < 3.16 nM
viability, T/C (second compound 0.0316 µM, first compound 0.00316 µM): 109%
viability, T/C (second compound 0.0316 µM, first compound 0.01 µM): 105%
viability, T/C (second compound 0.0316 µM, first compound 0.0316 µM): 106%
viability, T/C (second compound 0.0316 µM, first compound 0.1 µM): 109%
viability, T/C (second compound 0.0316 µM, first compound 0.316 µM): 108%
viability, T/C (second compound 0.0316 µM, first compound 1 µM): 93%
viability, T/C (second compound 0.1 µM, first compound 0.00316 µM): 108%
viability, T/C (second compound 0.1 µM, first compound 0.01 µM): 114%
viability, T/C (second compound 0.1 µM, first compound 0.0316 µM): 106%
viability, T/C (second compound 0.1 µM, first compound 0.1 µM): 100%
viability, T/C (second compound 0.1 µM, first compound 0.316 µM): 101%
viability, T/C (second compound 0.1 µM, first compound 1 µM): 90.4%
viability, T/C (second compound 0.316 µM, first compound 0.00316 µM): 109%
viability, T/C (second compound 0.316 µM, first compound 0.01 µM): 102%
viability, T/C (second compound 0.316 µM, first compound 0.0316 µM): 100%
viability, T/C (second compound 0.316 µM, first compound 0.1 µM): 112%
viability, T/C (second compound 0.316 µM, first compound 0.316 µM): 98%
viability, T/C (second compound 0.316 µM, first compound 1 µM): 83.6%
viability, T/C (second compound 1 µM, first compound 0.00316 µM): 104%
viability, T/C (second compound 1 µM, first compound 0.01 µM): 105%
viability, T/C (second compound 1 µM, first compound 0.0316 µM): 98.5%
viability, T/C (second compound 1 µM, first compound 0.1 µM): 93.2%
viability, T/C (second compound 1 µM, first compound 0.316 µM): 86.9%
viability, T/C (second compound 1 µM, first compound 1 µM): 75.1%
viability, T/C (second compound 3.16 µM, first compound 0.00316 µM): 74.8%
viability, T/C (second compound 3.16 µM, first compound 0.01 µM): 74.3%
viability, T/C (second compound 3.16 µM, first compound 0.0316 µM): 81%
viability, T/C (second compound 3.16 µM, first compound 0.1 µM): 81.8%
viability, T/C (second compound 3.16 µM, first compound 0.316 µM): 59.2%
viability, T/C (second compound 3.16 µM, first compound 1 µM): 38.9%
viability, T/C (second compound 10 µM, first compound 0.00316 µM): 47.2%
viability, T/C (second compound 10 µM, first compound 0.01 µM): 45.9%
viability, T/C (second compound 10 µM, first compound 0.0316 µM): 53%
viability, T/C (second compound 10 µM, first compound 0.1 µM): 40.4%
viability, T/C (second compound 10 µM, first compound 0.316 µM): 35.4%
viability, T/C (second compound 10 µM, first compound 1 µM): 29.5%
